Experimental data from US12655116B2, “Substituted isophthalic acid diamides” (Bayer Aktiengesellschaft, priority 2020, dated 2026).

Assays:
ALOMY [1] = assay: Post-emergence herbicidal action against ALOMY; type: in vivo, Alopecurus myosuroides; conditions: visual assessment about 3 weeks after treatment vs untreated controls
How it was run: (§1)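 Percent herbicidal action is rated by eye about 3 weeks after treatment against untreated controls, where 100% means dead plants and 0% means like controls. Plants in sandy loam are sprayed on green parts at the one-leaf stage with aqueous WP or EC preparations at 600 to 800 l/ha plus 0.2% wetting agent.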

AVEFA [2] = assay: Pre-emergence herbicidal action against AVEFA; type: in vivo, Avena fatua; conditions: 80 g/ha, pre-emergence
How it was run: (§2)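 Seeds sown in sandy loam, soil-covered; compound sprayed on soil surface pre-emergence. Application: WP/EC, 600–800 l/ha, 0.2% wetting agent. Readout: visual % damage at 3 weeks.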

VERPE = assay: Pre-emergence herbicidal action against VERPE; type: in vivo, Veronica persica; conditions: Veronica persica, 504 h, dosage 80 g/ha
How it was run: as §2

SETVI [3] = assay: Post-emergence herbicidal action against SETVI; type: in vivo, Setaria viridis
How it was run: as §1

PHBPU [4] = assay: Post-emergence herbicidal action against PHBPU; type: in vivo, Pharbitis purpurea
How it was run: as §1

DIGSA = assay: Pre-emergence herbicidal action against DIGSA; type: in vivo, Digitaria sanguinalis
How it was run: as §2

ABUTH = assay: Pre-emergence herbicidal action against ABUTH; type: in vivo, Abutilon theophrasti
How it was run: as §2

AVEFA [5] = assay: Post-emergence herbicidal action against AVEFA; type: in vivo, Avena fatua; conditions: 20 g/ha, visual assessment about 3 weeks after treatment, 100% = plants have died, 0% = like control plants
How it was run: as §1

ECHCG [6] = assay: Pre-emergence herbicidal action against ECHCG; type: in vivo, Echinochloa crus-galli
How it was run: as §2

ECHCG [7] = assay: Post-emergence herbicidal action against ECHCG; type: in vivo, Echinochloa crus-galli
How it was run: as §1

POLCO = assay: Pre-emergence herbicidal action against POLCO; type: in vivo, Polygonum convolvulus
How it was run: as §2

MATIN [8] = assay: Pre-emergence herbicidal action against MATIN; type: in vivo, Matricaria inodora
How it was run: as §2

MATIN [9] = assay: Post-emergence herbicidal action against MATIN; type: in vivo, Matricaria inodora
How it was run: as §1

VIOTR [10] = assay: Pre-emergence herbicidal action against VIOTR; type: in vivo, Viola tricolor
How it was run: as §2

LOLRI = assay: Pre-emergence herbicidal action against LOLRI; type: in vivo, Lolium rigidum; conditions: 80 g/ha
How it was run: as §2

PHBPU [11] = assay: Pre-emergence herbicidal action against PHBPU; type: in vivo, Pharbitis purpurea
How it was run: as §2

SETVI [12] = assay: Pre-emergence herbicidal action against SETVI; type: in vivo, Setaria viridis
How it was run: as §2

AMARE [13] = assay: Post-emergence herbicidal action against AMARE; type: in vivo, Amaranthus retroflexus; conditions: Amaranthus retroflexus, 504 h, 20 g/ha, visual assessment about 3 weeks after treatment, 100% = plants have died, 0% = like control plants
How it was run: as §1

ALOMY [14] = assay: Pre-emergence herbicidal action against ALOMY; type: in vivo, Alopecurus myosuroides; conditions: pre-emergence
How it was run: as §2

AMARE [15] = assay: Pre-emergence herbicidal action against AMARE; type: in vivo, Amaranthus retroflexus
How it was run: as §2

VIOTR [16] = assay: Post-emergence herbicidal action against VIOTR; type: in vivo, Viola tricolor; conditions: 20 g/ha
How it was run: as §1

[17] = Ipomoea purpurea, 504 h, dosage 20 g/ha
[18] = Tripleurospermum inodorum, 504 h, dosage 20 g/ha
[19] = 80 g/ha, scored visually after 3 weeks vs untreated controls (100% = plants have died, 0% = like control plants)

Compound: CC(C)NC(=O)c1c(C(F)(F)F)ccc(C(=O)Nc2nnnn2C)c1Cl [Example 1-137]
- pest or weed control at 20 g/ha (ALOMY [1]; Alopecurus myosuroides, 504 h, dosage 20 g/ha): 90%
- pest or weed control at 80 g/ha (AVEFA [2]; Avena fatua, 504 h): 90%
- pest or weed control at 80 g/ha (VERPE): 90%
- pest or weed control at 20 g/ha (SETVI [3]; Setaria viridis, 504 h, dosage 20 g/ha): 80%
- pest or weed control at 5 g/ha (PHBPU [4]; Ipomoea purpurea, 504 h, dosage 5 g/ha): 80%
- pest or weed control at 20 g/ha (PHBPU [4]; [17]): 80%
- pest or weed control at 20 g/ha (DIGSA; Digitaria sanguinalis, 504 h, dosage 20 g/ha): 100%
- pest or weed control at 80 g/ha (DIGSA; Digitaria sanguinalis, 504 h, dosage 80 g/ha): 100%
- pest or weed control at 80 g/ha (ABUTH; Abutilon theophrasti, 504 h, 80 g/ha, scored visually after 3 weeks vs untreated controls (100% = plants have died, 0% = like control plants)): 100%
- pest or weed control at 20 g/ha (ABUTH; Abutilon theophrasti, 504 h, dosage 20 g/ha, scored visually after 3 weeks vs untreated controls, 100% = plants have died, 0% = like control plants, read-out: Pre-emergence action against ABUTH (herbicidal activity in percent)): 100%
- pest or weed control at 20 g/ha (AVEFA [5]; Avena fatua, 504 h): 80%
- pest or weed control at 20 g/ha (ECHCG [6]; Echinochloa crus-galli, 504 h, 20 g/ha): 80%
- pest or weed control at 80 g/ha (ECHCG [6]; Echinochloa crus-galli, 504 h, 80 g/ha): 100%
- pest or weed control at 5 g/ha (ECHCG [7]; Echinochloa crus-galli, 504 h, dosage 5 g/ha): 90%
- pest or weed control at 20 g/ha (ECHCG [7]; Echinochloa crus-galli, 504 h, dosage 20 g/ha): 90%
- pest or weed control at 20 g/ha (POLCO; Fallopia convolvulus, 504 h, dosage 20 g/ha): 80%
- pest or weed control at 80 g/ha (POLCO; Fallopia convolvulus, 504 h, dosage 80 g/ha): 100%
- pest or weed control at 20 g/ha (MATIN [8]; [18]): 100%
- pest or weed control at 80 g/ha (MATIN [8]; Tripleurospermum inodorum, 504 h, dosage 80 g/ha): 100%
- pest or weed control at 5 g/ha (MATIN [9]; Tripleurospermum inodorum, 504 h, dosage 5 g/ha): 80%
- pest or weed control at 20 g/ha (MATIN [9]; [18]): 80%
- pest or weed control at 20 g/ha (VIOTR [10]; Viola tricolor, 504 h, dosage 20 g/ha): 90%
- pest or weed control at 80 g/ha (VIOTR [10]; Viola tricolor, 504 h, dosage 80 g/ha): 100%
- pest or weed control at 80 g/ha (LOLRI; Lolium rigidum, 504 h): 90%
- pest or weed control at 20 g/ha (PHBPU [11]; [17]): 80%
- pest or weed control at 80 g/ha (PHBPU [11]; Ipomoea purpurea, 504 h, dosage 80 g/ha): 90%
- pest or weed control at 80 g/ha (SETVI [12]; Setaria viridis, 504 h, dosage 80 g/ha): 100%
- pest or weed control at 20 g/ha (AMARE [13]): 90%
- pest or weed control at 80 g/ha (ALOMY [14]; Alopecurus myosuroides, 504 h, 80 g/ha, scored visually after 3 weeks vs untreated controls (100% = plants have died, 0% = like control plants)): 90%
- pest or weed control at 20 g/ha (ALOMY [14]; Alopecurus myosuroides, 504 h, 20 g/ha, scored visually after 3 weeks, 100% = plants have died, 0% = like control plants): 90%
- pest or weed control at 20 g/ha (AMARE [15]; Amaranthus retroflexus, 504 h, 20 g/ha, scored visually after 3 weeks vs untreated controls, 100% = plants have died, 0% = like control plants): 100%
- pest or weed control at 80 g/ha (AMARE [15]; Amaranthus retroflexus, 504 h, 80 g/ha, scored visually after 3 weeks vs untreated controls, 100% = plants have died, 0% = like control plants): 100%

Compound: CCn1nnnc1NC(=O)c1ccc(Br)c(C(=O)NCC(F)F)c1Cl [Example 2-182]
- Post-emergence action against ALOMY in % (ALOMY [1]; dosage 5 g/ha): 80%
- Post-emergence action against ALOMY in % (ALOMY [1]; dosage 20 g/ha): 100%
- Pre-emergence action against AVEFA in % (AVEFA [2]): 90%
- Post-emergence action against SETVI in % (SETVI [3]; dosage 5 g/ha): 90%
- Post-emergence action against SETVI in % (SETVI [3]; dosage 20 g/ha): 100%
- Post-emergence action against PHBPU in % (PHBPU [4]; dosage 5 g/ha): 80%
- Post-emergence action against PHBPU in % (PHBPU [4]; dosage 20 g/ha): 90%
- Pre-emergence action against DIGSA in % (DIGSA; dosage 20 g/ha): 100%
- Pre-emergence action against DIGSA in % (DIGSA; dosage 80 g/ha): 100%
- Pre-emergence action against ABUTH (herbicidal activity) (ABUTH; [19]): 100%
- Pre-emergence action against ABUTH (herbicidal activity in percent) (ABUTH; dosage 20 g/ha, scored visually after 3 weeks vs untreated controls, 100% = plants have died, 0% = like control plants): 100%
- Post-emergence action at 20 g/ha against AVEFA in % (AVEFA [5]): 80%
- Post-emergence action against VIOTR in % (VIOTR [16]): 100%
- Pre-emergence action against ECHCG in % (ECHCG [6]; 80 g/ha): 100%
- Post-emergence action against ECHCG in % (ECHCG [7]; dosage 5 g/ha): 90%
- Post-emergence action against ECHCG in % (ECHCG [7]; dosage 20 g/ha): 90%
- Pre-emergence action against POLCO in % (POLCO; dosage 80 g/ha): 90%
- Pre-emergence action against MATIN in % (MATIN [8]; dosage 20 g/ha): 90%
- Pre-emergence action against MATIN in % (MATIN [8]; dosage 80 g/ha): 100%
- Post-emergence action against MATIN in % (MATIN [9]; dosage 5 g/ha): 90%
- Post-emergence action against MATIN in % (MATIN [9]; dosage 20 g/ha): 90%
- Pre-emergence action against VIOTR in % (VIOTR [10]; dosage 20 g/ha): 100%
- Pre-emergence action against VIOTR in % (VIOTR [10]; dosage 80 g/ha): 100%
- Pre-emergence action against LOLRI in % (LOLRI): 80%
- Pre-emergence action against PHBPU in % (PHBPU [11]; dosage 80 g/ha): 90%
- Pre-emergence action against SETVI in % (SETVI [12]; dosage 20 g/ha): 90%
- Pre-emergence action against SETVI in % (SETVI [12]; dosage 80 g/ha): 100%
- Pre-emergence action against ALOMY (herbicidal activity) (ALOMY [14]; [19]): 80%
- Pre-emergence action against AMARE in % (AMARE [15]; 20 g/ha, scored visually after 3 weeks vs untreated controls, 100% = plants have died, 0% = like control plants): 100%
- Pre-emergence action against AMARE in % (AMARE [15]; [19]): 100%
